81 compounds from the METLIN SMRT retention time set (Domingo-Almenara et al. 2019) can be followed below.

Structures are written as SMILES.

This data set is described as follows: gradient 5% acetonitrile 3 min, to 50% in 2 min, to 85% in 15 min, held 3 min, 100 µL/min. The settings on record: column: Zorbax Extend-C18 2.1 x 50 mm; eluents: water / acetonitrile, 0.1% formic acid. In a few lines:
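Each retention time is based on an adduct peak selected computationally and verified by manual inspection. Measurements used HPLC–quadrupole time-of-flight mass spectrometry in positive and negative ionization mode on mixtures of ~100 pure standards. Chromatography ran on a Zorbax Extend-C18 column (2.1 × 50 mm, 1.8 μm) at 100 μL/min with water and acetonitrile, each containing 0.1% formic acid, and dead and dwell volumes of 40 μL and 900 μL.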
Regarding `CCC1Oc2ccc(S(=O)(=O)N3CCC(C(=O)NCc4cccs4)CC3)cc2NC1=O` (stereo unspecified), the RP-LC retention time was 807 s.

`O=S(=O)(c1ccc(-c2noc(-c3cccc(Br)c3)n2)cc1)N1CCOCC1` registered an RP-LC retention time of 1190 s. Take `CCOC(=O)c1c(C)[nH]c(C(=O)N2CCC(C(C)C(=O)NCc3ccc(N(C)C)cc3)CC2)c1C` (stereo unspecified): the RP-LC retention time was found to be 635 s.

The compound `Cc1nn(C(C)C)c(C)c1S(=O)(=O)N1CCN(C(=O)C2(c3ccccc3)CC2)CC1` yielded an RP-LC retention time of 890 s.

Turning to `CCn1ccc2oc(C)c(C(=O)N3CCN(c4ccc(OC)cc4)CC3)c2c1=O`, the RP-LC retention time was 682 s. Consider `O=C(Cn1cccc1-c1nnc(-c2ccccc2)o1)NCc1cccs1`, for which the RP-LC retention time was 854 s. The compound `Cc1ccc(-n2c(N3CCCC(C(=O)Nc4ccc(F)cc4)C3)nc3ccsc3c2=O)cc1` (stereo unspecified) had an RP-LC retention time of 959 s. Turning to `Cc1ccc(C)c(N2CCN(C(=O)Cc3csc4nc(-c5ccc(C)c(C)c5)cn34)CC2)c1`, the RP-LC retention time was 1120 s. Consider `COc1ccc2c(c1)C1(CCN(C(=O)NC(C)C)C1)C(=O)N2C` (stereo unspecified), for which the RP-LC retention time turned out to be 681 s. Consider `COC(=O)c1ccc(CSc2nnc(CNC(=O)c3ccccc3)o2)o1`, for which the RP-LC retention time was found to be 683 s. The compound `CCC1Oc2ccc(S(=O)(=O)N3CCC(C(=O)Nc4cccc(Cl)c4C)CC3)cc2NC1=O` (stereo unspecified) returned an RP-LC retention time of 947 s.

`COc1ccc(CN2CCC(NC(=O)C3(c4ccccc4)CC3)C2)cn1` (stereo unspecified): the RP-LC retention time came to 639 s. `CCNC(=O)Nc1ccc2c(c1)CN(C(=O)Nc1ccc3c(c1)OCCO3)CCO2` had an RP-LC retention time of 706 s.

Take `COc1cccc2sc(N(C)CC(=O)NCCc3cccs3)nc12`: the RP-LC retention time is 772 s. The compound `CCc1ccc(-n2nnc(C(=O)N3CCC(N4CCCCC4)CC3)c2-c2ccncc2)cc1` registered an RP-LC retention time of 634 s. For `Cc1ccn2c(C(C)O)nnc2c1` (stereo unspecified), the RP-LC retention time is 574 s. `CN(C)c1ccc2c(c1)CN(C(=O)c1cc(C3CC3)[nH]n1)CCO2` registered an RP-LC retention time of 588 s.

As for `COc1ccc(Nc2ncccc2S(N)(=O)=O)cc1`, the RP-LC retention time was determined as 712 s. Under `CC(C)(C)NC(=O)NC1CCN(C(=O)C2CCC2)C1` (stereo unspecified) stands 636 s; under `CC(C)Cn1c(=O)c2ccccc2n(Cc2nc(-c3ccc(C(F)(F)F)cc3)no2)c1=O`, 1300 s. In turn, `CC(C)Cn1c(=O)c2ccccc2n(Cc2nc(-c3ccccc3Cl)no2)c1=O` yielded an RP-LC retention time of 1170 s.

Compound `Cc1cc(C(=O)NCc2ccsc2)no1` had an RP-LC retention time of 700 s. On to `O=C(CSc1ccc(F)cc1)NCC(O)(c1ccccc1)C(F)(F)F` (stereo unspecified), for which the RP-LC retention time was determined as 887 s. Consider `CCOc1ccc(NC(=O)N2CCC(c3cc(N)on3)CC2)cc1`, for which the RP-LC retention time amounted to 690 s. `Cc1cc2nc(C(=O)Nc3ccccc3F)cc(C)n2n1`: the RP-LC retention time came to 1000 s. `CCCn1c(=O)sc2cc(S(=O)(=O)N3CCC(C(=O)Nc4ccccc4)CC3)ccc21`: the RP-LC retention time amounted to 965 s.

As to `Cc1ccc(-n2c(=O)n(CC(=O)NCCN3CCOCC3)c3cccnc32)cc1`, the RP-LC retention time was determined as 596 s. Under `Cc1cc(SCC(=O)N2CCCc3ccccc32)ncn1` stands 771 s.

With `Cc1cn(C)c(CC(=O)NCCCN2CCOCC2)c1C(=O)O`, the RP-LC retention time was 571 s.

On to `O=S(=O)(c1ccc(F)c(Cl)c1)N1CCC(OCc2noc(C3CCCO3)n2)CC1` (stereo unspecified), for which the RP-LC retention time came to 973 s. With `CCc1nnc(-c2ccc(=O)n(CC(=O)N3CCC4(CC3)OCCO4)c2)o1`, the RP-LC retention time is 594 s.

In turn, `CCCS(=O)(=O)c1ccc(N2CCN(c3ccccc3OC)CC2)nn1` displayed an RP-LC retention time of 809 s. Under `CCCNC(=O)C1CCCN(c2ccc(SCC(=O)Nc3ccc(OC)c(Cl)c3)nn2)C1` (stereo unspecified) stands 688 s; under `Cc1ccc(CNC(=O)CN2CCN(Cc3ccc(F)cc3)C2=O)o1`, 766 s; under `CC(C)NC(=O)C1(C)CC(c2ccccc2)=NO1` (stereo unspecified), 799 s.

As to `O=c1ccc(N2CCC(NS(=O)(=O)c3cccnc3)CC2)nn1CC1CC1`, the RP-LC retention time turned out to be 700 s.

As for `COCCn1c(C)cc(O)c(C(c2ccc(OC)cc2OC)N2CCCCC2)c1=O` (stereo unspecified), the RP-LC retention time amounted to 688 s. `O=C(NC1CCCCC1)C1CCN(S(=O)(=O)c2ccc(-c3noc(C4CC4)n3)cc2)CC1` registered an RP-LC retention time of 928 s.

With `Cc1nc(NC(=O)c2ccccc2)n[nH]1`, the RP-LC retention time was found to be 583 s. Take `Cc1nn(C(C)C(=O)NCCc2c[nH]c3ccccc23)c(=O)c2c(C)n(-c3ccccc3)nc12` (stereo unspecified): the RP-LC retention time came to 904 s. Under `CCCNC(=O)CC1=C2CCCCC2N(C)C1=O` (stereo unspecified) stands 638 s; under `CCn1c(=O)c(N2CCCC(C(=O)NC3CCN(Cc4ccccc4)CC3)C2)nc2ccccc21` (stereo unspecified), 685 s. Take `Cc1ccc(S(=O)(=O)N2CCC(n3cnc4c(C)cccc4c3=O)CC2)cc1`: the RP-LC retention time is 929 s. `COc1ccc(Cl)cc1NC(=O)N1CCCC1c1nc(-c2ccc(F)cc2F)no1` (stereo unspecified) yielded an RP-LC retention time of 1120 s. In turn, `C[C@H]1CN(C(=O)Nc2ccc(Cl)cc2)C[C@@H]1c1nc(-c2ccncc2)no1` yielded an RP-LC retention time of 821 s. `CCn1nc(C)n2cc(S(=O)(=O)NCc3cccc(C)c3)cc2c1=O` yielded an RP-LC retention time of 882 s.

The compound `COc1ccc(C(=O)NCCC(O)C(C)(C)C)cc1` (stereo unspecified) returned an RP-LC retention time of 688 s. For `Cc1cccc(CN2CC(=O)N(c3ccc(C)c(C)c3)[C@@H]3CS(=O)(=O)C[C@@H]32)c1`, the RP-LC retention time came to 906 s. With `CC(=O)N1CCc2sc(S(=O)(=O)N3CCN(c4cccc(Cl)c4)CC3)cc2C1`, the RP-LC retention time amounted to 957 s.

In the case of `CC(NC(=O)c1n[nH]c2ccccc12)C(=O)N1CCN(c2ccccn2)CC1` (stereo unspecified), the RP-LC retention time stood at 595 s. Under `O=C(NCc1ccco1)c1nc2ccccn2c1-c1ccsc1` stands 761 s; under `COc1ccc(OC)c2sc(NCc3ccccn3)nc12`, 585 s; under `CCCCOc1ccc(NC(=O)c2oc3cc(C)ccc3c2C)c2cccnc12`, 946 s. For `Cc1ccc(-c2ccnc3c(C(=O)NCCc4c[nH]c5ccccc45)cnn23)cc1C`, the RP-LC retention time was determined as 1070 s.

Turning to `COc1cccc(NC(=O)C2CCCN(c3nc4ccsc4c(=O)n3-c3cccc(OC)c3)C2)c1` (stereo unspecified), the RP-LC retention time stood at 921 s. Under `CC(C)NC(=O)c1ccc2c(c1)N(C)C(=O)CS2` stands 698 s; under `O=C1CC(c2ccccc2Cl)Cc2nc(N3CCN(Cc4ccc5c(c4)OCO5)CC3)ncc21` (stereo unspecified), 765 s. `CCCCN(CC)C(=O)Cn1nc(Cc2ccncc2)c2ccccc2c1=O`: the RP-LC retention time was 624 s. Compound `O=C(Cc1cccs1)N1CCCC1c1nc(-c2cccc(Cl)c2)no1` (stereo unspecified) came in with an RP-LC retention time of 1050 s. In turn, `Cc1cc(NC(=O)c2cc(-c3cccs3)[nH]n2)sn1` gave an RP-LC retention time of 672 s. Turning to `CCOc1ccccc1CNC(=O)C1CCCN(c2nccnc2Sc2ccc(C)cc2)C1` (stereo unspecified), the RP-LC retention time was determined as 1190 s.

Take `c1ccc(-c2noc(-c3ccc(NCc4ccc5c(c4)OCO5)nc3)n2)cc1`: the RP-LC retention time came to 1110 s.

`O=C(Nc1cccc(F)c1)c1cc(C2CC2)on1` registered an RP-LC retention time of 956 s. For the compound `CCOc1ccc(-n2nnnc2CNC(=O)NCc2cccs2)cc1`, the RP-LC retention time amounted to 714 s. `COC(=O)c1ccc(C(=O)Nc2ccncc2NC(=O)c2ccc(C(=O)OC)cc2)cc1` came in with an RP-LC retention time of 646 s. `COc1ccc(CC(=O)NCCc2nc3cccnc3n2C)cc1` came in with an RP-LC retention time of 581 s. Under `COC(=O)c1ccc(NC(=O)CSc2ncnc3c2nnn3C)cc1` stands 683 s; under `Cc1cc(F)ccc1S(=O)(=O)NCCc1ccsc1`, 900 s. `COc1ccc(OC)c(-c2cc(C(=O)NCc3nc(C)no3)[nH]n2)c1` yielded an RP-LC retention time of 662 s. `Cc1cc(C2CCCN2C(=O)Nc2cc(Cl)ccc2C)on1` (stereo unspecified) showed an RP-LC retention time of 794 s. Take `CCN(CC)S(=O)(=O)c1ccc2c(c1)N(CC(=O)N1CCN(C)CC1)C(=O)C1CCCCN21` (stereo unspecified): the RP-LC retention time worked out at 658 s.

`COC(=O)c1ccc(Cn2cnc3c(-c4cccc(F)c4)csc3c2=O)o1` had an RP-LC retention time of 957 s. Compound `O=C(NCc1nc(-c2ccc3c(c2)Sc2ccccc2C(=O)N3C2CC2)no1)c1ccco1` registered an RP-LC retention time of 861 s.

The compound `Cc1cccc(N2CCN(C(=O)Cn3ccc4ccc(N5CCOCC5)nc43)CC2)c1` displayed an RP-LC retention time of 959 s. With `O=c1n(Cc2ccc(Cl)cc2)nc2c(S(=O)(=O)N3CCOCC3)cccn12`, the RP-LC retention time stood at 808 s. Consider `O=C(Nc1ccc(N2CCCN(C(=O)C3CC3)CC2)cc1)c1cc(-c2ccc(F)cc2)n[nH]1`, for which the RP-LC retention time was 730 s. In the case of `COc1ccc(-c2nc(N3CCC4(CC3)OCCO4)c3ccccc3n2)cc1`, the RP-LC retention time was 726 s. On to `O=C(Cn1cnc2nc(N3CCCC(C(=O)NC4CC4)C3)sc2c1=O)Nc1ccc(F)cc1F` (stereo unspecified), for which the RP-LC retention time is 673 s. Turning to `Cc1ccc(NC(=O)Cn2nc3cc(-c4ccccc4)nc(C)n3c2=O)c(F)c1`, the RP-LC retention time amounted to 958 s.

On to `Cn1cnc(C(=O)N2CC(F)(F)C[C@H]2c2nc(C3CC3)no2)c1`, for which the RP-LC retention time stood at 667 s.

Regarding `Cn1cccc(C(=O)NCCCn2cccc2)c1=O`, the RP-LC retention time stood at 644 s.
